Assays:
[1] = White, Amber and Yellow polymorphic forms of WAY; literature (Yeadon 1985; Xiaorong He 2000); cited from earlier work
[2] = cocrystal compared with crystals of fluoxetine HCl
[3] = Form I vs Form II, room temperature; Zhang et al. 2002; cited from earlier work

Q: Which “relative stability of the three forms” value [1] does the source give for `CC(=O)Nc1ccc(C)cc1[N+](=O)[O-]` [amber form, 4-methyl-2-nitroacetanilide] here?
A: Its value is “least stable”.

Q: Which “relative stability of the three forms” value [1] does the source give for `CC(=O)Nc1ccc(C)cc1[N+](=O)[O-]` [yellow form, 4-methyl-2-nitroacetanilide] here?
A: The value was “more stable than the amber form”.

Q: Which dissolution rate [2] does the source give for `CNCCC(Oc1ccc(C(F)(F)F)cc1)c1ccccc1.Cl.O=C(O)c1ccccc1` (centres unmarked) [fluoxetine HCl:benzoic acid] here?
A: Its dissolution rate is “lower dissolution rate”.

Q: Which “relative stability of the three forms” value [1] does the source give for `CC(=O)Nc1ccc(C)cc1[N+](=O)[O-]` [white form, 4-methyl-2-nitroacetanilide] here?
A: The value was “most stable form”.

Q: Which “relative stability of polymorphic forms” value [3] does the source give for `Cc1ccnc(NS(=O)(=O)c2ccc(N)cc2)n1` [sulfamerazine Form II, Sulfamerazine] here?
A: Its value is “most stable form at room temperature”.

From US8920559B2, “Screening for solid forms by ultrasound crystallization and cocrystallization using ultrasound” (Aptuit (West Lafayette), LLC, priority 2004, dated 2014)
